# Patent US7115650B1, “Compositions for improving fertility” (Ferring BV, priority 1999, dated 2006)
# Columns and labels:
# Assay type in all cases: in vivo, rat
# [1] = tested on: obese Zucker Diabetic Fatty (ZDF) rats; test: Pituitary LH content by radioimmunoassay in animal model of human infertility; conditions: treated obese ZDF rats, oral 10 mg/kg/day, end of study; obese control 8.1±0.6, lean 6.3±0.6; p<0.05 vs control
# Description: (§1) Obese Zucker Diabetic Fatty males and females as well as fertile lean males and females were put into individual cages and fed with Purina 5008 (6.5% fat). At 6.5 weeks of life, obese rats were randomized into 3 groups: • 1. Control group—obese ZDF rats (n=8) treated with vehicle. • 2. Once-daily treatment group—obese ZDF rats (n=8) given the compound of Example 1B orally once daily (10 mg/kg/day). • 3. Twice-daily treatment group—obese ZDF rats (n=8) given the compound of Example 1B orally twice daily (10 mg/kg/day). Methods
# (§2) Blood and pituitaries of lean and obese rats were collected at the end of the study. Pituitary LH and plasma testosterone concentrations were measured by radioimmunoassay. Estrous cyclicity was evaluated by observation of vaginal smear.
# [2] = tested on: obese Zucker Diabetic Fatty (ZDF) male rats; test: Plasma testosterone by radioimmunoassay in animal model of human infertility; conditions: treated obese ZDF males, oral 10 mg/kg/day, end of study; obese 1145±328, lean 2410±239; NS vs lean
# Description: as §1, §2
# [3] = tested on: obese Zucker Diabetic Fatty (ZDF) female rats; test: Estrous cyclicity by observation of vaginal smear in animal model of human infertility; conditions: oral 10 mg/kg/day, untreated obese females had abnormal cyclicity vs lean
# Description: as §1, §2
structure (smiles),measurement,setting,value
"CC(C)(C)[C@H](N)C(=O)N1CCC[C@H]1C#N [Example 1B, (2S)-N-((2′S)-2′-amino-3′,3′-dimethylbutanoyl)pyrrolidine-2-carbonitrile]",Pituitary LH content,[1],5.2±0.4 μg/pituitary
same,Plasma testosterone level,[2],2390 ± 759 pg/mL
same,Estrous cyclicity,[3],normalised estrous cyclicity
